Results from US20070037841A1, “Inhibitors” (priority 2003, published 2007).

Key:
RRE [1] = test: UV absorption spectrum screening of drugs mixed with RRE; assay type: binding, HIV-1; conditions: range of 300 nm to 400 nm; absorption of free compound subtracted or compared
Description: Referring to UV absorption spectra of RRE in the presence and absence of naphthyridine dimer, screenings of the drugs was carried out. […] In FIG. 7, the solid line indicates the UV absorption spectrum of RRE alone, and the dotted line indicates a UV absorption spectrum when the absorption of naphthyridine dimer free is subtracted from the absorption of the mixture of naphthyridine dimer and RRE. […] In FIG. 8, the solid line indicates the UV absorption spectrum of RRE alone, and the dotted line indicates a UV absorption spectrum when the absorption of the naphthyridine-azaquinolone hybrid free is subtracted from the absorption of the mixture of the naphthyridine-azaquinolone hybrid and RRE. […] In FIG. 9, the solid line indicates the UV absorption spectrum of RRE alone, and the dotted line indicates a UV absorption spectrum when the absorption of the first quinoline-containing compound free is subtracted from the absorption of the mixture of the first quinoline-containing compound and RRE. […] In FIG. 10, the solid line indicates the UV absorption spectrum of RRE alone, and the dotted line indicates a UV absorption spectrum when the absorption of the second quinoline-containing compound free is subtracted from the absorption of the mixture of the second quinoline-containing compound and RRE. As represented by structural formula (8), the second quinoline-containing compound is obtained by replacing one naphthyridine of naphthyridine dimer with a quinoline incapable of hydrogen-binding to a guanine. [drawing 13] In the present example, comparison was made within a range of 300 nm to 400 nm where no absorption of RRE occurs. Naphthyridine is represented by structural formula (9). Azaquinolone is represented by structural formula (10). […] FIGS. 11-13 respectively illustrate the UV absorption spectra of naphthyridine, azaquinolone, or quinolone alone and the mixture thereof with RRE.

Rev-RRE complex = test: Fluorescence polarization (anisotropy) inhibition of Rev-RRE complex formation; assay type: binding, HIV-1; conditions: for IC50: Rev-Fl / RRE, read-out: IC50 value for inhibiting complex formation; for potency of inhibiting Rev-RRE complex formation compared with neomycine B: anisotropy decrease versus inhibitor concentration
Description: By using a fluorescence polarization method, it was tested whether Rev-RRE complex formation was inhibited by naphthyridine dimer and the naphthyridine-azaquinolone hybrid.
A greater molecular weight results in a greater polarization degree, i.e., a greater anisotropy.
Naphthyridine dimer, the naphthyridine-azaquinolone hybrid, and neomycine B were used as inhibitors, and anisotropies of each of the inhibitors was measured. […] The horizontal axis indicates the concentration of each of the inhibitors.
An IC50 value of the trinaphthyridine-azaquinolone hybrid used as an inhibitor was obtained by using the fluorescence polarization method. The IC50 value of the trinaphthyridine-azaquinolone hybrid was 0.2 μM. Further, in FIG. 27, the solid line indicates how a CD spectrum of RRE alone was changed, the dotted line indicates how a CD spectrum of RRE was changed when naphthyridine dimer was added to RRE, the dashed line indicates how a CD spectrum of RRE was changed when the trinaphthyridine-azaquinolone hybrid was added to RRE, and […].
Naphthyridine dimer, the naphthyridine-azaquinolone hybrid, the neomycine B, and the trinaphthyridine-azaquinolone hybrid were used as inhibitors, and anisotropies of each of the inhibitors was measured.

[2] = tested on: single-stranded RNA (ss RNA); test: SPR binding of RNA to naphthyridine dimer immobilized on sensor chip; conditions: ssRNA over immobilized naphthyridine dimer
Description: (§1) In a manner shown in FIG. 17, a binding strength of each of RRE, RRE-neg, TAR, and single-stranded RNA (ss RNA) with respect to naphthyridine dimer immobilized on an SPR sensor chip was analyzed. Like RRE, TAR is known as an HIV-RNA target. In FIG. 18, the solid line indicates the binding strength of RRE, the dotted line the binding strength of RRE-neg, the dashed line the binding strength of TAR, and the double-dashed line the binding strength of ssRNA.

RRE-neg = test: as above; conditions: RRE-neg over immobilized naphthyridine dimer
Description: Further, a change in CD spectrum of RRE-neg due to its binding to each of the drugs was analyzed. RRE-neg has no internal loop found in RRE, the internal loop including a GG mismatch and a GA mismatch.
as §1

RRE [3] = test: UV titration of naphthyridine dimer with RRE; assay type: binding, HIV-1
Description: UV titration was carried out in order to study how naphthyridine dimer bound to RRE.
It was confirmed that as the concentration of RRE increased, the UV absorbance of naphthyridine dimer decreased and the UV absorbance of a complex increased above an isosbestic point.

RRE [4] = test: SPR binding of RNA to naphthyridine dimer immobilized on sensor chip; design: species or system HIV-1; conditions: RRE over immobilized naphthyridine dimer
Description: as §1

TAR = test: as above; design: species or system HIV; conditions: TAR RNA over immobilized naphthyridine dimer
Description: as §1

RRE [5] = test: CD spectrum change of RRE (and RRE-neg control) on binding of drugs; design: species or system HIV-1; conditions: for binding specificity from CD spectra of RRE versus RRE-neg: RRE-neg has no internal loop (GG and GA mismatch)
Description: A change in CD spectrum of RRE due to its binding to each of the drugs was analyzed. In FIG. 14, the solid line indicates a CD spectrum of RRE alone, the dotted line indicates a CD spectrum of a mixture of naphthyridine dimer and RRE, and the dashed line indicates a CD spectrum of a mixture of the naphthyridine-azaquinolone hybrid and RRE. Further, a change in CD spectrum of RRE-neg due to its binding to each of the drugs was analyzed. RRE-neg has no internal loop found in RRE, the internal loop including a GG mismatch and a GA mismatch.

Structure (SMILES): NCCC(=O)Nc1ccc2ccccc2n1
- change in UV absorption spectrum on mixing with RRE (RRE [1]): almost no changes

Structure (SMILES): Cc1ccc2ccc(NC(=O)CCNCCC(=O)Nc3ccc4ccccc4n3)nc2n1 [first quinoline-containing compound]
- change in UV absorption spectrum on mixing with RRE (RRE [1]): no remarkable changes

Structure (SMILES): Cc1ccc2ccc(NC(=O)CCNCCC(=O)Nc3ccc4ccc(C)nc4n3)nc2n1 [naphthyridine dimer]
- IC50 (Rev-RRE complex; fluorescence polarization): 1200 nM
- potency of inhibiting Rev-RRE complex formation compared with neomycine B (Rev-RRE complex): higher potency
- binding strength (SPR signal) [2]: almost no responses
- change in UV absorption spectrum on mixing with RRE (RRE [1]): significant changes
- binding strength (SPR signal) (RRE-neg): almost no responses
- binding mode to RRE from UV titration (RRE [3]; RRE of various concentrations, absorption at 332 nm): intercalated into a duplex of RRE
- number of naphthyridine dimers forming the complex with RRE (RRE [3]; UV titration): two
- binding strength (SPR signal) (RRE [4]): strong signal
- binding strength (SPR signal) (TAR): did not bind at all
- change in CD spectrum of RRE when compound added (RRE [5]): significant change in the whole spectrum
- binding specificity from CD spectra of RRE versus RRE-neg (RRE [5]): specifically binds to the internal loop of RRE

Structure (SMILES): Cc1ccc2ccc(NC(=O)CCNCCC(=O)NCc3ccc4ccc(=O)[nH]c4n3)nc2n1 [naphthyridine-azaquinolone hybrid]
- IC50 (Rev-RRE complex; fluorescence polarization): 2000 nM
- potency of inhibiting Rev-RRE complex formation compared with neomycine B (Rev-RRE complex): higher potency
- change in UV absorption spectrum on mixing with RRE (RRE [1]): significant changes
- change in CD spectrum of RRE when compound added (RRE [5]): change at 300 nm or above
- binding specificity from CD spectra of RRE versus RRE-neg (RRE [5]): specifically binds to the internal loop of RRE

Structure (SMILES): NCC1OC(OC2C(CO)OC(OC3C(O)C(N)CC(N)C3OC3OC(CN)C(O)C(O)C3N)C2O)C(N)C(O)C1O (stereo not shown) [neomycine B, reference compound]
- IC50 (Rev-RRE complex; fluorescence polarization): 4000 nM

Structure (SMILES): O=C(CCNCCC(=O)Nc1ccc2ccccc2n1)NCc1ccc2ccc(=O)[nH]c2n1 [second quinoline-containing compound]
- change in UV absorption spectrum on mixing with RRE (RRE [1]): no remarkable changes

Structure (SMILES): Cc1ccc2ccc(NC(=O)CCN(CCCCCN(CCC(=O)Nc3ccc4ccc(C)nc4n3)CCC(=O)Nc3ccc4ccc(C)nc4n3)CCC(=O)NCc3ccc4ccc(=O)[nH]c4n3)nc2n1 [trinaphthyridine-azaquinolone hybrid]
- IC50 (Rev-RRE complex; fluorescence polarization): 200 nM
- activity relative to neomycine B (Rev-RRE complex; fluorescence polarization): approximately twenty
